Source: PubChem BioAssay AID248 (DTP/NCI, 2004)
Values joined by “and” are separate entries in the source; they are usually repeats but may differ in a detail not shown here. Equal values may be shown once. Toxic doses and inconclusive results are not listed. No stated cut-off is given here; in the data, active means T/C of 150% or more; inactive means T/C below 125%. Peptide text beside a SMILES is read from it. * marks the point of attachment. Cbz = O=C(OCc1ccccc1)*

Tested on: L1210 leukemia ip in BDF1 mice, survival T/C
Assay: NCI In Vivo Anticancer Drug Screen. Data for tumor model L1210 Leukemia (intraperitoneal) in B6D2F1 (BDF1) mice
Settings: endpoint: mean survival time, higher = longer survival
Outline: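 Transplantable tumor model; survival measured in treated vs vehicle control mice. Value = treated/control.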

[1] = dose: 25.0 mg/kg/injection, schedule: Q01DX009 (ip), vehicle: Klucel (hydroxypropylcellulose) (HPC)
[2] = dose: 100.0 mg/kg/injection, schedule: Q01DX001 (ip), vehicle: saline
[3] = dose: 200.0 mg/kg/injection, schedule: Q01DX001 (ip), vehicle: saline
[4] = dose: 400.0 mg/kg/injection, schedule: Q01DX001 (ip), vehicle: saline
[5] = dose: 100.0 mg/kg/injection, schedule: Q01DX001 (ip), vehicle: carboxymethylcellulose (CMC)
[6] = dose: 200.0 mg/kg/injection, schedule: Q01DX001 (ip), vehicle: carboxymethylcellulose (CMC)
[7] = dose: 100.0 mg/kg/injection, schedule: Q04DX003 (ip), vehicle: Klucel (hydroxypropylcellulose) (HPC)
[8] = dose: 200.0 mg/kg/injection, schedule: Q04DX003 (ip), vehicle: Klucel (hydroxypropylcellulose) (HPC)
[9] = dose: 400.0 mg/kg/injection, schedule: Q04DX003 (ip), vehicle: Klucel (hydroxypropylcellulose) (HPC)
[10] = dose: 100.0 mg/kg/injection, schedule: Q01DX009 (ip), vehicle: saline with Tween-80
[11] = dose: 200.0 mg/kg/injection, schedule: Q01DX009 (ip), vehicle: saline with Tween-80
[12] = dose: 50.0 mg/kg/injection, schedule: Q01DX009 (ip), vehicle: Klucel (hydroxypropylcellulose) (HPC)
[13] = dose: 100.0 mg/kg/injection, schedule: Q01DX009 (ip), vehicle: Klucel (hydroxypropylcellulose) (HPC)

Measured: T/C

CC[P+](CC)(CC)c1ccccc1
inactive: dose: 6.0 mg/kg/injection, schedule: Q04DX003 (ip), vehicle: saline 103 % of control | dose: 6.25 mg/kg/injection, schedule: Q01DX009 (ip), vehicle: saline 100 % of control | dose: 12.0 mg/kg/injection, schedule: Q04DX003 (ip), vehicle: saline 107 % of control | dose: 12.5 mg/kg/injection, schedule: Q01DX009 (ip), vehicle: saline 100 % of control | [1] 100 % of control | dose: 25.0 mg/kg/injection, schedule: Q01DX009 (ip), vehicle: saline 110 % of control | dose: 25.0 mg/kg/injection, schedule: Q04DX003 (ip), vehicle: saline 96 % of control and 92 % of control

CCCCC[As](=O)(O)O
inactive: dose: 1.5 mg/kg/injection, schedule: Q01DX001 (ip), vehicle: carboxymethylcellulose (CMC) 104 % of control | dose: 3.0 mg/kg/injection, schedule: Q01DX001 (ip), vehicle: carboxymethylcellulose (CMC) 102 % of control | dose: 6.0 mg/kg/injection, schedule: Q01DX001 (ip), vehicle: carboxymethylcellulose (CMC) 113 % of control

COC(=O)C(CC(C)C)NC(=O)C(Cc1ccccc1)NC(=O)C(CO)NC(=O)OCc1ccccc1 (stereo not drawn) (Cbz-Ser-Phe-Leu-OMe; configuration not given here)
inactive: [2] 93 % of control | [3] 93 % of control | [4] 94 % of control

Oc1ccc(Cl)c2cccnc12
inactive: dose: 4.0 mg/kg/injection, schedule: Q01DX015 (ip), vehicle: carboxymethylcellulose (CMC) 103 % of control | dose: 8.0 mg/kg/injection, schedule: Q01DX015 (ip), vehicle: carboxymethylcellulose (CMC) 106 % of control | dose: 16.0 mg/kg/injection, schedule: Q01DX015 (ip), vehicle: carboxymethylcellulose (CMC) 103 % of control | dose: 32.0 mg/kg/injection, schedule: Q01DX015 (ip), vehicle: carboxymethylcellulose (CMC) 95 % of control | dose: 64.0 mg/kg/injection, schedule: Q01DX015 (ip), vehicle: carboxymethylcellulose (CMC) 102 % of control | [5] 90 % of control | dose: 128.0 mg/kg/injection, schedule: Q01DX015 (ip), vehicle: carboxymethylcellulose (CMC) 100 % of control | [6] 103 % of control

CCOC(=O)c1cnc(SC)nc1NCCO
inactive: [7] 97 % of control | [8] 95 % of control | [9] 97 % of control

CC(=O)N/N=C/c1ccc(N(C)C)cc1
inactive: [5] 94 % of control | [6] 94 % of control

Cc1cc(OC(=O)Nc2cccc(Cl)c2)ccc1Cl
inactive: [10] 91 % of control | [11] 93 % of control | dose: 400.0 mg/kg/injection, schedule: Q01DX009 (ip), vehicle: saline with Tween-80 95 % of control

CCCCCC(=O)Oc1c(C(C)(C)C)cc([N+](=O)[O-])c(C)c1[N+](=O)[O-]
inactive: dose: 100.0 mg/kg/injection, schedule: Q04DX002 (ip), vehicle: saline 93 % of control | dose: 200.0 mg/kg/injection, schedule: Q04DX002 (ip), vehicle: saline 93 % of control

CC(C#N)CC12CCCCC1CC/C(=C\c1ccccc1)C2=O (stereo not given)
inactive: [7] 102 % of control | [8] 96 % of control | [9] 96 % of control

CNC(=Nc1ccccc1)c1ccc(NC(=O)c2ccc(C(=O)Nc3ccc(C(=Nc4ccccc4)NC)cc3)cc2)cc1
inactive: dose: 15.0 mg/kg/injection, schedule: Q01DX Z (ip), vehicle: saline 100 % of control | dose: 30.0 mg/kg/injection, schedule: Q01DX Z (ip), vehicle: saline 105 % of control | dose: 60.0 mg/kg/injection, schedule: Q01DX Z (ip), vehicle: saline 102 % of control

CCOC(=O)c1ccc(Nc2sc(C(=O)c3ccccc3)c(N)c2C#N)cc1
inactive: dose: 100.0 mg/kg/injection, schedule: Q04DX002 (ip), vehicle: saline with Tween-80 120 % of control | dose: 200.0 mg/kg/injection, schedule: Q04DX002 (ip), vehicle: saline with Tween-80 92 % of control | dose: 400.0 mg/kg/injection, schedule: Q04DX002 (ip), vehicle: saline with Tween-80 89 % of control

Cc1ccc2ccccc2c1CC(=O)NN
inactive: [7] 102 % of control | [8] 104 % of control | [9] 104 % of control

COc1ccc(C)cc1NC(=O)OCCOc1ccc(Br)cc1
inactive: dose: 50.0 mg/kg/injection, schedule: Q01DX009 (ip), vehicle: saline with Tween-80 90 % of control | [10] 97 % of control | [11] 87 % of control

O=C(NC(=S)Nc1cccc(Cl)c1)c1ccccc1F
inactive: [1] 87 % of control | [12] 86 % of control | [13] 87 % of control

OC1CCC2C=CCC1S2 (stereo not given)
inactive: dose: 100.0 mg/kg/injection, schedule: Q01DX009 (ip), vehicle: gum acacia 101 % of control | dose: 200.0 mg/kg/injection, schedule: Q01DX009 (ip), vehicle: gum acacia 100 % of control | dose: 400.0 mg/kg/injection, schedule: Q01DX009 (ip), vehicle: gum acacia 97 % of control

COc1cc(N(CCCl)CCCl)ccc1/C=N\NC(=O)c1cccnc1
inactive: [1] 87 % of control | dose: 50.0 mg/kg/injection, schedule: Q01DX001 (ip), vehicle: saline 105 % of control | [12] 88 % of control | [2] 105 % of control | [13] 90 % of control | [3] 100 % of control | dose: 200.0 mg/kg/injection, schedule: Q01DX009 (ip), vehicle: Klucel (hydroxypropylcellulose) (HPC) 96 % of control | [4] 97 % of control

Oc1c(-c2ccccn2)cccc1C(F)(F)F
inactive: dose: 12.5 mg/kg/injection, schedule: Q04DX003 (ip), vehicle: Klucel (hydroxypropylcellulose) (HPC) 98 % of control | dose: 25.0 mg/kg/injection, schedule: Q04DX003 (ip), vehicle: Klucel (hydroxypropylcellulose) (HPC) 102 % of control | dose: 50.0 mg/kg/injection, schedule: Q04DX003 (ip), vehicle: Klucel (hydroxypropylcellulose) (HPC) 100 % of control

CC(=O)/C=C(/C)O
inactive: dose: 100.0 mg/kg/injection, schedule: Q04DX003 (ip), vehicle: saline 100 % of control | dose: 200.0 mg/kg/injection, schedule: Q04DX003 (ip), vehicle: saline 118 % of control
